Common to all, as to type: functional, cell-based
The nature of test [1]: Inhibitory concentration against Calf pulmonary artery endothelial cells (CPAE) measured for endothelial cell proliferation activity. As to conditions: Bos taurus.
In the next test the test system is P388. The test is described as follows: Inhibitory concentration against Murine leukemia P388 measured for endothelial cell proliferation activity. To be noted: Mus musculus.
Test [2] can be described thus: Inhibitory concentration against Lymphoma EC4 cells measured for endothelial cell proliferation activity. As to conditions: Homo sapiens.

≈ marks a conversion by molar mass, not a printed value. Where only a bound is given, the exact number is not on record here.

Take `CO[C@@H]1[C@H](OC(=O)/C=C/C=C/C=C/C=C/C(=O)O)CC[C@]2(CO2)[C@H]1[C@@]1(C)OC1CC=C(C)C` (single isomer, unassigned) [FUMAGILLIN]: the IC50 in test [1] is 0.003 µg/mL (≈ 0.00654 µM); in the test on P388 it was no less than 10 µg/mL; in test [2] it was 0.0016 µg/mL (≈ 0.00349 µM).
For `CO[C@@H]1[C@H](OC(=O)NC(=O)CCl)C[C@]2(CO2)[C@H]1[C@@]1(C)O[C@@H]1CCC(C)C` the same measures were 0.088 µg/mL (≈ 0.226 µM), no less than 10 µg/mL and 0.3 µg/mL (≈ 0.769 µM).
For `CO[C@@H]1[C@H](OC(=O)NC(=O)CCl)CC[C@]2(CO2)[C@H]1[C@@]1(C)OC1CC=C(C)C` (single isomer, unassigned) [O-CHLOROACETYLCARBAMOYLFUMAGILLOL] the same measures were 0.0002 µg/mL (≈ 0.000498 µM), no less than 10 µg/mL and 0.0038 µg/mL (≈ 0.00946 µM).
For `CO[C@@H]1[C@H](OC(=O)NC(=O)CCl)C[C@]2(CO2)[C@H]1[C@]1(C)O[C@H]1CCC(C)C` the same measures were 0.57 µg/mL (≈ 1.46 µM), no less than 10 µg/mL and 1.1 µg/mL (≈ 2.82 µM).

In general, IC50 refers to the point on the concentration scale where inhibition reaches its midpoint. Read a low IC50 as higher potency.
